This is an account of results in patent publication US11229685B2, “Fungal iron acquisition inhibitors and uses thereof” (priority 2013, dated 2022).

Where two headings read alike, the source gives them in different places.

The test system of experiment [1] is A. fumigatus strain dsRed. It is filed as in vivo, Aspergillus fumigatus. The conditions noted are these: C57BL/6 mice. Here is the method:
Aspergillus and Fusarium strains were cultured as described above for 2-3 days, and fresh conidia were disrupted with a bacterial L-loop, harvested in 5 ml PBS, and filtered through sterile PBS soaked cotton gauze in a 10 ml syringe to obtain pure conidial suspensions. Conidia were quantified using a hemocytometer and adjusted in PBS to a final stock solution of 15-20,000 conidia/μl. Mice were anaesthetized with 1.25% 2,2,2-tri-bromoethanol in PBS. The corneal epithelium was abraded using a 30-gauge needle, through which a 2 μl injection containing conidia was released into the corneal stroma using a 33-gauge Hamilton syringe. Mice were examined daily under a stereomicroscope for corneal opacification, and quantified by image analysis using Metamorph software as described. At each time point, animals were euthanized by CO2 asphyxiation, and eyes were either placed in 10% formalin and embedded in paraffin, sectioned at 5 μm intervals and stained with periodic acid schiff and hematoxylin (PASH), or were placed in 1 ml of sterile PBS, homogenized and colony forming units (CFU) were quantified by manual count.
For topical drug delivery, compounds were suspended in a commercial eye drop formulation (Alcon laboratories) or in PBS and 8 μl applied topically at 0 h and 6 h post-infection. Lactoferrin (1.25 mg/ml), deferiprone (10 mM), deferroxamine (10 mM), and simvastatin (4 mM) were purchased from Sigma Aldrich (St. Louis, Mo.). BEC (28 mM) was obtained from Cayman chemicals (Ann Arbor, Mich.). E. coli-expressed recombinant human lipocalin-1 was purified as described previously and applied topically at 2 mg/ml. Iron-dextran and deferroxamine were both purchased from Sigma and administered systemically to mice via daily I.P. injections of 5 mg starting at day −2 until mice were euthanized. All animals were bred under specific pathogen-free conditions and maintained according to institutional guidelines.
Growth of the RFP expressing A. fumigatus strain in the cornea was detected using fluorescent microscopy and quantified by Metamorph image analysis. For assessment of fungal viability, whole eyes were homogenized under sterile conditions in 1 ml PBS, using the Mixer Mill MM300 (Retsch) at 33 Hz for 4 min. Subsequently, 100 μl aliquots were plated onto bacteriologic-grade sabouraud dextrose agar plates, incubated for 24 h at 37° C. (Aspergillus) or at 30° C. (Fusarium and Alternaria), and the number of CFUs was determined by direct counting.

The test system of a further experiment is A. fumigatus. Description: In vitro human neutrophil:hyphae growth inhibition assay (calcofluor white fluorometry). It is filed as cell-based, Aspergillus fumigatus. To be noted: for growth of A. fumigatus: incubation in media for 16 h. Here is the method:
(§1) FIGS. 8(A-G) illustrate a schematic drawing, images, and graphs showing the effect of topical simvastatin and deriprone on fungal infection. A. Statin targeting of fungal HMG-CoA reductase in siderophore biosynthesis. B, C. Effect of statins and iron chelators on growth of A. fumigatus and F. oxysporum in vitro. B. Simvastatin, lovastatin, deferiprone, or deferroxamine were added to growing cultures of A. fumigatus or C. F. oxysporum for 16 h, and hyphal growth was quantified by calcofluor white. D. Growth of A. fumigatus incubated with these compounds in the absence (black bars) or presence (gray bars) of human neutrophils by calcofluor white quantification (data are mean+/−SEM of five replicate wells) E. C57BL/6 mice were infected with A. fumigatus and at 0 and 6 h post-infection 13.4 μg of simvastatin (Sv), deferiprone (11.1 μg), deferroxamine (52.5 μg), Sv+ deferiprone, or Sv+ deferroxamine was applied topically to infected corneas and eyes were imaged at 24 h post-infection. F. Metamorph image analysis was used to quantify fungal dsRed expression and G. eyes were homogenized for CFU analysis. B-D: data are mean+/−SEM of five replicate wells; F, G: data points represent individual corneas.
Human neutrophils were isolated from normal, healthy donors using Ficoll-Paque Plus (GE) density centrifugation as described. Isolated conidia from each A. fumigatus mutant were cultured in 200 μl SDA media (12,500/well) in black-wall 96 well plates with an optically clear bottom (CoStar 3720) until early germ tubes were observed (4-6 h). Wells were washed twice with sterile ddH2O and incubated 16 h with either RPMI media (+ Control), PBS (− Control), or a sublethal dose of human peripheral blood neutrophils in RPMI (0.5−1*10^5/well). At 16 h post-exposure, plates were washed once and stained with 50 μl calcofluor white stain (Binds chitin; Fluka 18909) for 5 min in the dark. Subsequently, plates were washed three times with ddH2O and quantified by fluorometry (360/440 nm; Synergy HT; Biotek).
HMG CoA reductase is required for mevalonate production and can be targeted by statins resulting in decreased siderophore biosynthesis (FIG. 8A). To determine the effect of blocking this pathway on fungal growth, A. fumigatus and Fusarium oxysporum were incubated in media with simvastatin and lovastatin, or with the iron chelators, deferiprone and deferroxamine.

The test system of a further experiment is F. oxysporum. Description: In vitro hyphal growth of F. oxysporum with statins and iron chelators (calcofluor white). The conditions noted are these: incubation in media for 16 h; b217 says results similar to A. fumigatus (less growth with statins and deferiprone, not deferroxamine). The format is cell-based, Fusarium oxysporum. Here is the method: as §1, with “B-D: data are mean+/−SEM of five replicate wells; F, G: data points represent individual corneas.” left out
Human neutrophils were isolated from normal, healthy donors using Ficoll-Paque Plus (GE) density centrifugation as described. […] Subsequently, plates were washed three times with ddH2O and quantified by fluorometry (360/440 nm; Synergy HT; Biotek). […]

[2] abbreviates: topical 16 μg/8 μl at 0 h and 6 h after infection, vs infected mice without exogenous Lcn-1.
Where [3] appears, read: topical 10.4 μg in 8 μl at 0 h and 6 h post-infection, 24 h post-infection, vs vehicle.
[4] abbreviates: plus human neutrophils, vs neutrophils alone.

As for “Lcn-1: E. coli-expressed recombinant human lipocalin-1, siderophore binding protein”, in experiment [1] (setting [2]), the CFU result is on record as “significantly less” and the “fungal dsRed” value is recorded as “significantly less”. Further, the “A. fumigatus growth in the presence of neutrophils” value in the experiment on A. fumigatus (4 μg/ml plus human neutrophils, vs neutrophils alone or Lcn-1 alone) was “significantly less than in the presence of neutrophils alone or with Lcn-1 alone”. Further, the fungal growth result in the experiment with A. fumigatus (4 μg/ml, absence of neutrophils) is recorded as “significantly less”. Also, the fungal growth entry in the experiment on A. fumigatus (40 μg/ml, absence of neutrophils) is on record as “significantly less”.

For the compound lactoferrin, in experiment [1] (setting [3]), the CFU entry was “significantly less” and the “fungal mass (dsRed)” value is reported as “significantly less”.

`N=C(NO)NCC[C@H](N)C(=O)O` [nNOHA, N^ω-Hydroxy-nor-L-arginine]: the fungal growth entry in the experiment on A. fumigatus (100 μM, no neutrophils, vs RPMI alone) was “significantly lower than in RPMI alone”. Also, the “fungal growth when incubated with neutrophils” value in the experiment with A. fumigatus (plus human neutrophils, vs neutrophils alone, concentration not given) is reported as “not significantly different from neutrophils alone”.

For `Cc1c(O)c(=O)ccn1C` [deferiprone, 1,2 dimethyl-3-hydroxypyrid-4-1], the “fungal dsRed emission” value in experiment [1] (topical at 0 and 6 h post-infection (simvastatin 13.4 μg, deferiprone 11.1 μg, deferroxamine 52.5 μg), 24 h, vs vehicle-treated mice) is “significantly less”. The “growth of A. fumigatus” value in the experiment with A. fumigatus (no neutrophils) is given as “significantly less growth”. For the same compound, the “A. fumigatus growth in the presence of human neutrophils” value in the experiment with A. fumigatus (setting [4]) is on record as “inhibited”.

As for `CC[C@H](C)C(=O)O[C@H]1C[C@@H](C)C=C2C=C[C@H](C)[C@H](CC[C@@H]3C[C@@H](O)CC(=O)O3)[C@H]21` [lovastatin], in the experiment with A. fumigatus (no neutrophils), the “growth of A. fumigatus” value was “significantly less growth”. Besides, the “A. fumigatus growth in the presence of human neutrophils” value in the experiment with A. fumigatus (setting [4]) is “inhibited”. Further, the “growth of Fusarium oxysporum” value in the experiment with F. oxysporum is given as “significantly less fungal cell growth”.
